According to patent publication US11419878B2, “Medicine obtained by combining FXR agonist and ARB” (Intercept Pharmaceuticals, Inc., priority 2016, dated 2022):

Key:
[1] = system: human hepatic stellate cells (HHSC); test: HHSC proliferation inhibition, WST-1 cell proliferation assay; assay type: cell-based; details: AT-II 10^-6M + LPS 10^-5M; ARB 10^-6M, obeticholic acid 5×10^-6M; 24 hours; WST-1 absorbance
Experimental: The various combined effects of obeticholic acid and three types of ARBs (losartan, valsartan, and candesartan) were confirmed in an in vitro cell system experiment. Specifically, using human hepatic stellate cells (HHSC), which are implicated in the main mechanism of progression of hepatic fibrosis in NASH, the effects of administration of obeticholic acid in combination with the three ARBs of inhibiting HHSC proliferation capacity and the expression of fibrosis markers were evaluated according to the following method. Human hepatic stellate cells (HHSC) (also referred to as human hepatic star cells) Obeticholic acid (obtained from Intercept Pharmaceuticals, Inc. via Sumitomo Dainippon Pharma Co., Ltd.) was used as an FXR agonist, and commercial losartan (potassium salt of losartan; referred to in this working example simply as “losartan”) and valsartan and candesartan ([…] of candesartan; referred to in this working example simply as “candesartan”) were used as ARBs. […] The direct action of inhibiting HIISC proliferation capacity was evaluated by means of a cell proliferation assay using WST-1 reagent. […] AT-II (10^-6M) Positive control group L […]): LPS 10^-5M) Positive control group AL ([…]): (10^-6M)+LPS (10^-5M) Obeticholic acid administration (G3): AT-II (10^-6M)+LPS (10^-5M)+obeticholic acid (5×10^-6M) ARB administration (G4): AT-II (10^-6M)+LPS (10^-5M)+ARB (10^-6M) Obeticholic acid+ARB combined administration (G5): AT-II (10^-6M)+LPS (10^-5M)+obeticholic acid (5×10^-6M)+ARB (10^-6M) 3) After the cells of the above groups (G1, G2A, G2L, G2AL, G3, G4, G5) were cultured for 24 hours, respective WST-1 cell proliferation assays were conducted, and the inhibitory effect of the pharmaceutical agents on cell proliferation was evaluated. The inhibitory effect of valsartan and candesartan on HHSC proliferation was also evaluated according to steps 1)-3) above. […]

TGF-β1 = test: HHSC fibrosis marker gene expression, RT-PCR, TGF-β1; assay type: cell-based, human; details: AT-II 10^-6M + LPS 10^-5M; ARB 10^-6M, obeticholic acid 5×10^-6M; 24 hours; monotherapy vs G2AL, combination vs monotherapy groups
Experimental: (§1) The various combined effects of obeticholic acid and three types of ARBs (losartan, valsartan, and candesartan) were confirmed in an in vitro cell system experiment. Specifically, using human hepatic stellate cells (HHSC), which are implicated in the main mechanism of progression of hepatic fibrosis in NASH, the effects of administration of obeticholic acid in combination with the three ARBs of inhibiting HHSC proliferation capacity and the expression of fibrosis markers were evaluated according to the following method. Human hepatic stellate cells (HHSC) (also referred to as human hepatic star cells) Obeticholic acid (obtained from Intercept Pharmaceuticals, Inc. via Sumitomo Dainippon Pharma Co., Ltd.) was used as an FXR agonist, and commercial losartan (potassium salt of losartan; referred to in this working example simply as “losartan”) and valsartan and candesartan ([…] of candesartan; referred to in this working example simply as “candesartan”) were used as ARBs. Angiotensin II (AT-II) and/or lipopolysaccharide (LPS) were used (both AT1-mediated AT-II signalling and TLR4-mediated LPS signaling are known to play major roles in HSC activation and the progression of hepatic fibrosis). With respect to the effect of inhibiting fibrosis marker gene expression, collagen production capacity and TGF-β production capacity were evaluated by the RT-PCR method. 1) HHSCs were inoculated onto a 6-well plate in the amount of 300,000 cells/2 ml and allowed to proliferate in 1% FBS DMEM medium for 24 hours. 2) After 24 hours, the cells were divided into the following 7 groups and transferred to culture medium after adding the following drugs and/or reagents. Losartan was used as an ARB. Negative control group (G1): No drugs added (control) […] AT-II (10^-6M) Positive control group L […]): LPS (10^-5M) Positive control group AL ([…]): (10^-6M)+LPS (10^-5M) Obeticholic acid administration (G3): AT-II (10^-6M)+LPS (10^-5M)+obeticholic acid (5×10^-6M) ARB administration (G4): AT-II (10^-6M)+LPS (10^-5M)+ARB (10^-6M) Obeticholic acid+ARB combined administration (G5): AT-II (10^-6M)+LPS (10^-5M)+obeticholic acid (5×10^-6M)+ARB (10^-6M) […] Evaluations were conducted in the five groups G1, G2AL, G3, G4, and G5.

α1(I) procollagen = test: HHSC fibrosis marker gene expression, RT-PCR, α1(I) procollagen; assay type: cell-based, human; details: AT-II 10^-6M + LPS 10^-5M; ARB 10^-6M, obeticholic acid 5×10^-6M; 24 hours; monotherapy vs G2AL, combination vs monotherapy groups
Experimental: as §1

CCCCC(=O)N(Cc1ccc(-c2ccccc2-c2nnn[nH]2)cc1)[C@H](C(=O)O)C(C)C [valsartan]
statistically significant inhibition: promotion of activated HHSC proliferation by AT-II and LPS, compared to positive control group AL (G2AL) [1] | TGF-β1 mRNA expression induced by AT-II and LPS in HHSC (TGF-β1) | α1(I)-procollagen mRNA expression induced by AT-II and LPS in HHSC (α1(I) procollagen)

CCOc1nc2cccc(C(=O)O)c2n1Cc1ccc(-c2ccccc2-c2nn[nH]n2)cc1 [candesartan]
statistically significant inhibition: promotion of activated HHSC proliferation by AT-II and LPS, compared to positive control group AL (G2AL) [1] | TGF-β1 mRNA expression induced by AT-II and LPS in HHSC (TGF-β1) | α1(I)-procollagen mRNA expression induced by AT-II and LPS in HHSC (α1(I) procollagen)
